Data as given in PMC12598832, “Synthesis and Anticancer Potential of New Benzimidazole Theranostic” (ChemistryOpen, 2025).
“And” between values parts separate entries of the source, which are not always exact repeats. Equal values may be shown once. Where a name gives a salt, the structure may show the parent alone. Read-outs that look alike come from different tables or passages of the source.

Assays:
[1] = tested on: H103 (oral squamous cell carcinoma, OSCC) cell line; test: MTT cell proliferation assay, H103; format: cell-based; conditions: for H103 Selectivity Index (SI): versus HEK293; for IC50: MTT, 72 h, read-out: H103 IC50 [μM] ± SEM
Excerpt: (§1) The H103 and H314 OSCC cell lines were obtained from the European Collection of Cell Cultures (ECACC). The HCT116 and HEK293 cell lines were obtained from the American Type Culture Collection (Rockville, MD).
(§2) All cell lines were maintained in high‐glucose Dulbecco's Modified Eagle Media (DMEM) (Sigma‐Aldrich, Buchs, Switzerland). The culture media was supplemented with 10% fetal bovine serum (FBS) (TICO, Amsterdam, Netherlands) and 1% penicillin‐streptomycin. Prior to the cell‐based assay, cell lines were incubated at 37 °C in a 5% CO2 humidified atmosphere
(§3) Cells were seeded in 96‐well plates at a density of 5 × 10^3 per well. After 24 h of seeding, the cells were treated with 50 μM of the compounds of interest (final concentration 0.25% DMSO) and allowed to adhere for 72 h at 37 °C in a 5% CO2 humidified atmosphere. The 3‐(4,5‐dimethylthiazol‐2‐yl)‐2,5‐diphenyltetrazolium bromide (MTT) assay was conducted to examine the cell cytotoxicity profiles of the synthesized compounds. Briefly, the treatment media was discarded, and 0.5 mg mL^−1 of MTT was added to each well. The plates were incubated for another 4 h at 37 °C in a 5% CO2 humidified atmosphere. Following the incubation, the medium‐MTT solution was removed, and 100 μL of DMSO was added to dissolve the formazan crystals. The absorbance was measured at 570 nm, with the reference wavelength at 620 nm, using the Tecan Infinite 200 Pro. The experiment was carried out in triplicate.

H314 (OSCC) cell line = test: MTT cell proliferation assay, H314; format: cell-based; conditions: for IC50: MTT, read-out: H314 IC50 [μM] ± SEM; for IC50 / cytotoxic effect in preliminary screening, H314: 72 h; for H314 Selectivity Index (SI): versus HEK293; for cytotoxic effect in preliminary screening, H314: 50 μM, versus control 0.25% DMSO, ANOVA/Tukey
Excerpt: as §1, §2
as §3, with “After 24 h of seeding, the cells were treated with 50 μM of the compounds of interest (final concentration 0.25% DMSO) and allowed to adhere for 72 h at 37 °C in a 5% CO2 humidified atmosphere.” left out

[2] = tested on: HCT116 (colorectal carcinoma) cell line; test: MTT cell proliferation assay, HCT116; format: cell-based; conditions: for IC50: MTT, 72 h, read-out: HCT116 IC50 [μM] ± SEM; for HCT116 Selectivity Index (SI): versus HEK293
HEK293 cells = test: MTT cell proliferation assay, HEK293 (noncancerous); format: cell-based, human; conditions: read-out: HEK293 IC50 [μM] ± SEM
Excerpt: as §1, §2, §3

[3] = tested on: H103 (oral squamous cell carcinoma, OSCC) cell line; parameters: method as in PMID 32904142; conditions: previous study; cited from earlier work
H103 cell line = tested on: H103 cell line; parameters: method as in ref 28 Khoo et al.; conditions: 24 h treatment; ref 28 Khoo et al.; cited from earlier work
H314 cell line = tested on: H314 cell line; parameters: method as in ref 28 Khoo et al.; conditions: 24 h treatment; ref 28 Khoo et al.; cited from earlier work
SIRT2 human recombinant = biological target: T1, SIRT2 human recombinant (Homo sapiens, UniProt Q8IXJ6); test: SIRT2 Direct Fluorescent Screening Assay Kit (Cayman); format: biochemical; conditions: for IC50: five concentrations 1-50 μM
T1 construct: purchased Cayman Chemicals, Ann Arbor 700,280
T1 sequence (Q8IXJ6 1-389): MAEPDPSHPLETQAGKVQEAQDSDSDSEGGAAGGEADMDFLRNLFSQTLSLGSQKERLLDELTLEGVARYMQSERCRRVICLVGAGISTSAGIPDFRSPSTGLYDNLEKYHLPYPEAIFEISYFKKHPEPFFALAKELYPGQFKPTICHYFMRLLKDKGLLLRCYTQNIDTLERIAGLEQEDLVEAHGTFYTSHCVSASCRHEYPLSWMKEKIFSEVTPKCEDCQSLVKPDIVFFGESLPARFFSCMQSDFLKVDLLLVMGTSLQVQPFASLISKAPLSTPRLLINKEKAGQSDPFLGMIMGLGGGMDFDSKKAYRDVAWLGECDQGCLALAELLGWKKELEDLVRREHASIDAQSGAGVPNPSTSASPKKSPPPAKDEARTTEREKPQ
Method: The SIRT2 inhibitory activity of the compounds was evaluated using the SIRT2 Direct Fluorescent Screening Assay Kit (Cayman Chemicals, Ann Arbor, C/N: 700,280) according to the manufacturer's instructions. The SIRT2 peptide substrate comprised amino acids 317–320 of human p53 conjugated to […] (Gln‐Pro‐Lys‐Lys(ε‐acetyl)‐AMC). […] Subsequently, 50 μl of developer solution (6 μg μl^−1 SIRT2 developer, 2 mM nicotinamide) was added. The mixture was incubated for a further 30 min at room temperature. […] The fluorescence was measured with excitation and emission wavelengths of 355 and 460 nm, respectively, using the Tecan Infinite 200 Pro. The percentage inhibition was determined as the ratio of […] under each experimental condition to that of the control.

[4] = Fluorescence properties (molar extinction coefficient, quantum yield, Stokes shift); format: physicochemical
Method: A series of dilutions of V7 (dissolved in DMSO) was prepared. The absorbance of the solutions at 326 nm was recorded on the UviLine 9400 spectrophotometer using a quartz cuvette (10 × 10 mm). A calibration curve of absorbance against concentration was generated. The molar extinction coefficient was calculated from the gradient of the line of best fit, in accordance with Beer–Lambert's law.
A series of dilutions of V7 (dissolved in DMSO) was prepared. The fluorescence emission peak at each concentration was determined using the Tecan Infinite 200 Pro microplate reader (λex = 326 nm and λem = 492 nm). The […] peak was plotted against the fluorescence emission peak and compared to that of a quinine sulfate standard, which has a known quantum yield.
The quantum yield of V7 was subsequently calculated using the following equation Φ=ΦR(Grad/GradR)(n^2/nr2)
The quinine sulfate reference has a quantum yield of 54.6% when dissolved in 0.5 M H2SO4.^[ [26] ^] The refractive index of 0.5 M H2SO4 is 1.346, while the refractive index of DMSO is 1.479.^[ [27] ^]

[5] = parameters: method as in ref 26 = [26]; 26 W. H. Melhuish , J. Phys. Chem. 1961 , 65 , 229 .; conditions: in 0.5 M H2SO4; cited from earlier work
[6] = compound 50 μM, preliminary screening, read-out: Percentage SIRT2 inhibition (%)
[7] = compound 50 μM, preliminary screening
[8] = dose-response, 50 μM, read-out: % Inhibition of SIRT2

| SMILES | IC50 (H314 (OSCC) cell line) [µM] | IC50 ([2]; Homo sapiens, HCT-116) [µM] | inhibition at 50 µM (SIRT2 human recombinant; [6]) [%] | Percentage SIRT2 inhibition (%) (SIRT2 human recombinant; [7]) | H103 Selectivity Index (SI) [1] | HCT116 Selectivity Index (SI) [2] | IC50 (HEK293 cells; Homo sapiens, HEK293, 72 h) [µM] | H314 Selectivity Index (SI) (H314 (OSCC) cell line) | also measured |
| --- | --- | --- | --- | --- | --- | --- | --- | --- | --- |
| CCOC(=O)c1ccc2[nH]c(-c3ccc4c(c3)OCO4)nc2c1 [BZD9Q1, reference compound] | > 100 | 11.5 ± 2.3 |  |  | 3.15 | 1.60 | 18.4 ± 2.95 |  | IC50 [3]: 5.83 µM |
| N.N.[Cl][Pt][Cl] [Cisplatin, reference compound] | 15.1 ± 1.05 |  |  |  | 1.91 | 0.43 |  | 0.23 | IC50 [1]: 1.85 ± 0.42 µM; sensitivity in H103 relative to H314 ([1]; from IC50 values of Table 2): 8 fold; IC50 [2]: 8.24 ± 0.86 µM; IC50 (HEK293 cells; 72 h): 3.54 ± 0.18 µM; IC50 (H103 cell line): 15 µM; IC50 (H314 cell line): 200 µM |
| CCOC(=O)c1ccc2[nH]c(-c3cccc(O)c3)nc2c1 [Compound V1] |  |  | 25.4 ± 11.8 |  |  |  |  |  |  |
| CCOC(=O)c1ccc2[nH]c(-c3ccc(O)cc3O)nc2c1 [Compound V2] |  |  | > 95 | complete inhibition of enzymatic activity |  |  |  |  | inhibition at 1 µM (SIRT2 human recombinant; dose-response): 19.4 ± 2.4%; inhibition at 3 µM (SIRT2 human recombinant; dose-response): 29.5 ± 6.6%; inhibition at 10 µM (SIRT2 human recombinant; dose-response): 44.5 ± 0.2%; inhibition at 25 µM (SIRT2 human recombinant; dose-response): 59.8 ± 0.1%; inhibition at 50 µM (SIRT2 human recombinant; [8]): 77 ± 0.1%; IC50 (SIRT2 human recombinant): 10.8 µM |
| CCOC(=O)c1ccc2[nH]c(-c3ccc(OC)c(O)c3)nc2c1 [Compound V4] |  |  |  | no SIRT2 inhibition |  |  |  |  |  |
| CCOC(=O)c1ccc2[nH]c(-c3ccccc3O)nc2c1 [Compound V7] | 16.7 ± 1.13 | 13.3 ± 2.52 | > 95 | complete inhibition of enzymatic activity | 3.81 | 3.34 | 44.4 ± 3.03 | 2.66 | IC50 ([1]; Homo sapiens, H103): 11.6 ± 1.04 µM; cytotoxic effect in preliminary screening, H314 (H314 (OSCC) cell line): highly significant effects; inhibition at 1 µM (SIRT2 human recombinant; dose-response): 0.2 ± 5.8%; inhibition at 3 µM (SIRT2 human recombinant; dose-response): 32.8 ± 2.8%; inhibition at 10 µM (SIRT2 human recombinant; dose-response): 66.1 ± 7.1%; inhibition at 25 µM (SIRT2 human recombinant; dose-response): 81.3 ± 3.2%; inhibition at 50 µM (SIRT2 human recombinant; [8]): 100 ± 3%; IC50 (SIRT2 human recombinant): 6.4 µM; molar extinction coefficient (molar absorptivity ε) ([4]; in DMSO, absorbance at 326 nm): 34,477 M^−1 cm^−1 and 34 477 M^−1 cm^−1; quantum yield Φ ([4]; in DMSO, λex 326 nm, λem 492 nm, versus quinine sulfate): 26%; Stokes shift Δλ ([4]; λex 326 nm, λem 492 nm): 166 nm |
| CCOC(=O)c1ccc2[nH]c(-c3ccc(O)c(O)c3)nc2c1 [Compound V9] | 37.8 ± 1.81 | 16.6 ± 3.52 | 39.3 ± 7.3 |  |  | 3.13 | 51.8 ± 5.65 | 1.37 | IC50 ([1]; Homo sapiens, H103): > 50 µM; cytotoxic effect in preliminary screening, H314 (H314 (OSCC) cell line): highly significant effects |
| C=C[C@H]1C[N@@]2CC[C@H]1C[C@H]2[C@H](O)c1ccnc2ccc(OC)cc12 [quinine sulfate] |  |  |  |  |  |  |  |  | quantum yield of reference [5]: 54.6% |

Continued, in another order:

| IC50 (H314 (OSCC) cell line) [µM] | IC50 ([2]; Homo sapiens, HCT-116) [µM] | inhibition at 50 µM (SIRT2 human recombinant; [6]) [%] | Percentage SIRT2 inhibition (%) (SIRT2 human recombinant; [7]) | SMILES | H103 Selectivity Index (SI) [1] | HCT116 Selectivity Index (SI) [2] | IC50 (HEK293 cells; Homo sapiens, HEK293, 72 h) [µM] | H314 Selectivity Index (SI) (H314 (OSCC) cell line) | also measured |
| --- | --- | --- | --- | --- | --- | --- | --- | --- | --- |
|  |  | 61.9 ± 12 |  | CCOC(=O)c1ccc2[nH]c(-c3ccc(O)c(OC)c3)nc2c1 [Compound V3] |  |  |  |  |  |
| 31.7 ± 1.27 | 11.2 ± 3.14 |  | no SIRT2 inhibition | CCOC(=O)c1ccc2[nH]c(-c3cccc(OC)c3)nc2c1 [Compound V5] | 2.00 | 4.08 | 45.6 ± 2.18 | 1.44 | IC50 ([1]; Homo sapiens, H103): 22.8 ± 3.84 µM; cytotoxic effect in preliminary screening, H314 (H314 (OSCC) cell line): highly significant effects |
|  |  | 11.8 ± 11.4 | weakest inhibitory effect | CCOC(=O)c1ccc2[nH]c(-c3ccccc3OC)nc2c1 [Compound V6] |  |  |  |  |  |
|  |  | 25.5 ± 12.9 |  | CCOC(=O)c1ccc2[nH]c(-c3ccc(OC)c(OC)c3)nc2c1 [Compound V8] |  |  |  |  |  |
